Assay results: PubChem BioAssay AID248 (DTP/NCI, 2004)
Values joined by “and” are separate entries in the source; they are usually repeats but may differ in a detail not shown here. Equal values may be shown once. Toxic doses and inconclusive results are not listed. No stated cut-off is given here; in the data, active means T/C of 150% or more; inactive means T/C below 125%.

System: L1210 leukemia ip in BDF1 mice, survival T/C
Test: NCI In Vivo Anticancer Drug Screen. Data for tumor model L1210 Leukemia (intraperitoneal) in B6D2F1 (BDF1) mice
Conditions: endpoint: mean survival time, higher = longer survival
Procedure, shortened: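 Tumor was transplanted into mice, which were then dosed with test compound or vehicle alone. Survival was recorded for each group, and the treated figure was expressed relative to the control figure.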

[1] = dose: 100.0 mg/kg/injection, schedule: Q04DX002 (ip), vehicle: Klucel (hydroxypropylcellulose) (HPC)
[2] = dose: 100.0 mg/kg/injection, schedule: Q01DX001 (ip), vehicle: saline
[3] = dose: 400.0 mg/kg/injection, schedule: Q04DX002 (ip), vehicle: Klucel (hydroxypropylcellulose) (HPC)
[4] = dose: 200.0 mg/kg/injection, schedule: Q04DX002 (ip), vehicle: Klucel (hydroxypropylcellulose) (HPC)
[5] = dose: 100.0 mg/kg/injection, schedule: Q04DX003 (ip), vehicle: saline with Tween-80
[6] = dose: 200.0 mg/kg/injection, schedule: Q04DX003 (ip), vehicle: saline with Tween-80

Measured: T/C

Cc1ccc(S(=O)(=O)N2CCN(S(=O)(=O)c3ccc(C)c([N+](=O)[O-])c3)CC2)cc1[N+](=O)[O-]
inactive: dose: 3.12 mg/kg/injection, schedule: Q01DX009 (ip), vehicle: clinical formulation 103 % of control | dose: 6.25 mg/kg/injection, schedule: Q01DX009 (ip), vehicle: clinical formulation 100 % of control | dose: 6.25 mg/kg/injection, schedule: Q04DX003 (ip), vehicle: clinical formulation 103 % of control | dose: 12.5 mg/kg/injection, schedule: Q01DX009 (ip), vehicle: clinical formulation 107 % of control | dose: 12.5 mg/kg/injection, schedule: Q04DX003 (ip), vehicle: clinical formulation 108 % of control | dose: 25.0 mg/kg/injection, schedule: Q01DX009 (ip), vehicle: clinical formulation 115 % of control | dose: 25.0 mg/kg/injection, schedule: Q04DX003 (ip), vehicle: clinical formulation 116 % of control | dose: 50.0 mg/kg/injection, schedule: Q01DX009 (ip), vehicle: clinical formulation 95 % of control | dose: 50.0 mg/kg/injection, schedule: Q04DX003 (ip), vehicle: clinical formulation 124 % of control

NC(=O)CCC(NC(=O)OCc1ccccc1)C(=O)NCC(=O)O (stereo not given)
inactive: dose: 25.0 mg/kg/injection, schedule: Q04DX002 (ip), vehicle: Klucel (hydroxypropylcellulose) (HPC) 95 % of control | dose: 50.0 mg/kg/injection, schedule: Q04DX002 (ip), vehicle: Klucel (hydroxypropylcellulose) (HPC) 92 % of control | [1] 100 % of control

CC(NC(=O)C(C)(C)C)c1ccc(-c2ccccc2)cc1 (stereo not given)
inactive: dose: 100.0 mg/kg/injection, schedule: Q04DX002 (ip), vehicle: saline with Tween-80 98 % of control | dose: 200.0 mg/kg/injection, schedule: Q04DX002 (ip), vehicle: saline with Tween-80 95 % of control | dose: 400.0 mg/kg/injection, schedule: Q04DX002 (ip), vehicle: saline with Tween-80 98 % of control

Cc1c2ccccc2nc2ccccc12
inactive: [2] 106 % of control | dose: 200.0 mg/kg/injection, schedule: Q01DX001 (ip), vehicle: saline 98 % of control | dose: 400.0 mg/kg/injection, schedule: Q01DX001 (ip), vehicle: saline 101 % of control

Nc1nc2ncc(CNc3ccc(C(=O)NC(CCC(=O)O)C(=O)O)cc3F)nc2c(=O)[nH]1 (stereo not given)
inactive: dose: 50.0 mg/kg/injection, schedule: Q01DX001 (ip), vehicle: saline 109 % of control | [2] 105 % of control

CC12c3ccccc3C(C)(c3c1ccc1ccccc31)C1C(=O)OC(=O)C12 (stereo not given)
inactive: dose: 25.6 mg/kg/injection, schedule: Q04DX002 (ip), vehicle: Klucel (hydroxypropylcellulose) (HPC) 88 % of control | dose: 64.0 mg/kg/injection, schedule: Q04DX002 (ip), vehicle: Klucel (hydroxypropylcellulose) (HPC) 92 % of control | dose: 160.0 mg/kg/injection, schedule: Q04DX002 (ip), vehicle: Klucel (hydroxypropylcellulose) (HPC) 88 % of control | [3] 98 % of control

Cc1c(Cl)cccc1NC(=S)Nc1ccccc1
inactive: [1] 100 % of control | [4] 95 % of control | [3] 95 % of control

CC[CH2][Sn]([Br])([CH2]CC)[CH2]CC
inactive: dose: 1.56 mg/kg/injection, schedule: Q01DX009 (ip), vehicle: saline 95 % of control | dose: 3.12 mg/kg/injection, schedule: Q01DX009 (ip), vehicle: saline 102 % of control

O=c1[nH]cc(C(F)(F)F)c(=O)[nH]1
inactive: dose: 4.0 mg/kg/injection, schedule: Q01DX Z (oral), vehicle: methylcellulose (MC) 106 % of control | dose: 8.0 mg/kg/injection, schedule: Q01DX Z (oral), vehicle: methylcellulose (MC) 102 % of control | dose: 12.0 mg/kg/injection, schedule: Q01DX Z (oral), vehicle: methylcellulose (MC) 103 % of control and 91 % of control | dose: 16.0 mg/kg/injection, schedule: Q01DX Z (oral), vehicle: methylcellulose (MC) 90 % of control | dose: 50.0 mg/kg/injection, schedule: Q01DX Z (ip), vehicle: saline 103 % of control | dose: 100.0 mg/kg/injection, schedule: Q01DX Z (ip), vehicle: saline 107 % of control | dose: 200.0 mg/kg/injection, schedule: Q01DX Z (ip), vehicle: saline 116 % of control and 123 % of control | dose: 300.0 mg/kg/injection, schedule: Q01DX Z (ip), vehicle: saline 124 % of control | dose: 400.0 mg/kg/injection, schedule: Q01DX Z (ip), vehicle: saline 98 % of control | dose: 500.0 mg/kg/injection, schedule: Q01DX Z (ip), vehicle: saline 117 % of control | dose: 500.0 mg/kg/injection, schedule: Q01DX Z (oral), vehicle: methylcellulose (MC) 111 % of control | dose: 1000.0 mg/kg/injection, schedule: Q01DX Z (oral), vehicle: methylcellulose (MC) 93 % of control | dose: 1500.0 mg/kg/injection, schedule: Q01DX Z (oral), vehicle: methylcellulose (MC) 94 % of control | dose: 2000.0 mg/kg/injection, schedule: Q01DX Z (oral), vehicle: methylcellulose (MC) 88 % of control

CCCN(CCC)CCC#N
inactive: dose: 59.0 mg/kg/injection, schedule: Q01DX009 (ip), vehicle: saline with Tween-80 100 % of control | [5] 93 % of control | dose: 118.0 mg/kg/injection, schedule: Q01DX009 (ip), vehicle: saline with Tween-80 105 % of control | [6] 93 % of control

ON1CCCC1
inactive: dose: 100.0 mg/kg/injection, schedule: Q01DX009 (ip), vehicle: water 95 % of control | dose: 100.0 mg/kg/injection, schedule: Q04DX003 (ip), vehicle: water 92 % of control | dose: 200.0 mg/kg/injection, schedule: Q01DX009 (ip), vehicle: water 101 % of control | dose: 200.0 mg/kg/injection, schedule: Q04DX003 (ip), vehicle: water 92 % of control | dose: 400.0 mg/kg/injection, schedule: Q04DX003 (ip), vehicle: water 92 % of control

Cc1nc(N)[nH]c(=O)c1N
inactive: dose: 75.0 mg/kg/injection, schedule: Q01DX001 (ip), vehicle: saline with Tween-80 106 % of control | dose: 100.0 mg/kg/injection, schedule: Q04DX003 (ip), vehicle: Klucel (hydroxypropylcellulose) (HPC) 100 % of control | dose: 150.0 mg/kg/injection, schedule: Q01DX001 (ip), vehicle: saline with Tween-80 101 % of control | dose: 200.0 mg/kg/injection, schedule: Q04DX003 (ip), vehicle: Klucel (hydroxypropylcellulose) (HPC) 96 % of control | dose: 300.0 mg/kg/injection, schedule: Q01DX001 (ip), vehicle: saline with Tween-80 103 % of control | dose: 400.0 mg/kg/injection, schedule: Q04DX003 (ip), vehicle: Klucel (hydroxypropylcellulose) (HPC) 92 % of control

C=CCOCCC#N
inactive: dose: 25.0 mg/kg/injection, schedule: Q01DX009 (ip), vehicle: saline with Tween-80 95 % of control | dose: 50.0 mg/kg/injection, schedule: Q01DX009 (ip), vehicle: saline with Tween-80 97 % of control | dose: 100.0 mg/kg/injection, schedule: Q01DX009 (ip), vehicle: saline with Tween-80 100 % of control

C1=C(c2ccccc2)c2ccccc2C1(c1ccccc1)c1ccccc1
inactive: [5] 97 % of control | [6] 94 % of control | dose: 400.0 mg/kg/injection, schedule: Q04DX003 (ip), vehicle: saline with Tween-80 94 % of control

Cc1ncc(C#N)c(=O)[nH]1
inactive: dose: 25.0 mg/kg/injection, schedule: Q04DX003 (ip), vehicle: saline with Tween-80 92 % of control | dose: 50.0 mg/kg/injection, schedule: Q04DX003 (ip), vehicle: saline with Tween-80 90 % of control | [5] 90 % of control

CC(Oc1nc2c(c(=O)n(C)c(=O)n2C)n1C)C1CCCCC1 (stereo not given)
inactive: dose: 50.0 mg/kg/injection, schedule: Q01DX001 (ip), vehicle: other 95 % of control | dose: 100.0 mg/kg/injection, schedule: Q01DX001 (ip), vehicle: other 98 % of control | dose: 200.0 mg/kg/injection, schedule: Q01DX001 (ip), vehicle: other 93 % of control

CCCCCS(=O)(=O)N1CCCCCC1
inactive: dose: 100.0 mg/kg/injection, schedule: Q04DX002 (ip), vehicle: other 112 % of control | dose: 200.0 mg/kg/injection, schedule: Q04DX002 (ip), vehicle: other 87 % of control | dose: 400.0 mg/kg/injection, schedule: Q04DX002 (ip), vehicle: other 87 % of control

CN(NCc1ccccc1)C(=N)N
inactive: dose: 25.0 mg/kg/injection, schedule: Q04DX003 (ip), vehicle: saline 106 % of control | dose: 50.0 mg/kg/injection, schedule: Q04DX003 (ip), vehicle: saline 109 % of control | [2] 107 % of control | dose: 100.0 mg/kg/injection, schedule: Q04DX003 (ip), vehicle: saline 109 % of control

CSc1ccccc1NC(=O)c1cccs1
inactive: [1] 89 % of control | [4] 96 % of control | [3] 93 % of control
